In PubChem BioAssay (NCI):
Values joined by “and” are separate entries in the source; they are usually repeats but may differ in a detail not shown here. Identical values can stand only once.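 Protocol summary: plate cells (96-well), add compound at 5 concentrations, incubate 48 h, interpolate endpoints linearly. GI50 = concentration required for 50% inhibition of growth. TGI marks complete inhibition of growth.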

Legend:
Experiment in all cases: NCI tumour cell line growth inhibition, 48 h
HCT-116 colon = test system: HCT-116 colon
HOP-62 NSCLC = test system: HOP-62 NSCLC
HT29 colon = test system: HT29 colon
KM12 colon = test system: KM12 colon
KM20L2 colon = test system: KM20L2 colon
NCI-H522 lung = test system: NCI-H522 lung
RXF 393 renal = test system: RXF 393 renal
SK-MEL-28 melanoma = test system: SK-MEL-28 melanoma
SN12C renal = test system: SN12C renal
SNB-19 CNS = test system: SNB-19 CNS

Row | SMILES | TGI (HCT-116 colon) | TGI (HOP-62 NSCLC) | TGI (HT29 colon) | TGI (KM12 colon) | TGI (KM20L2 colon) [µM] | TGI (NCI-H522 lung) | TGI (RXF 393 renal) | TGI (SK-MEL-28 melanoma) | TGI (SN12C renal) | TGI (SNB-19 CNS) | GI50 (HT29 colon) | GI50 (KM12 colon) [µM] | GI50 (NCI-H522 lung) | GI50 (HCT-116 colon) | GI50 (HOP-62 NSCLC) | GI50 (KM20L2 colon) [µM] | GI50 (RXF 393 renal) | GI50 (SK-MEL-28 melanoma) [µM] | GI50 (SN12C renal) [µM] | GI50 (SNB-19 CNS) [µM]
1 | Nc1nc2nc[nH]c2c(=O)[nH]1 | > 100 µM | > 100 µM | > 100 µM | > 100 µM | > 100 | > 100 µM | > 100 µM | > 100 µM | > 100 µM |  |  |  |  |  |  |  |  |  |  | 
2 | Nc1ccn(C2CC(CO)C(O)C2O)c(=O)n1 (stereo not given) | > 57.7 µM | > 57.7 µM |  | > 57.7 µM | > 57.7 | > 57.7 µM | > 57.7 µM | > 57.7 µM | > 57.7 µM | > 57.7 µM |  |  |  |  |  |  |  |  |  | 
3 | COc1ccc(/C=C2\CCC(C)(CN(C)C)C2=O)cc1 (stereo not given) | > 100 µM | > 100 µM | > 100 µM | > 100 µM | > 100 | 32.8 µM | > 100 µM | > 100 µM | > 100 µM | > 100 µM |  |  |  |  |  |  |  |  |  | 
4 | COC(=O)C1=C(CO)C2C=CC1C2 (stereo not given) | > 100 µM | > 100 µM | > 100 µM | > 100 µM | > 100 | > 100 µM | > 100 µM |  | > 100 µM | > 100 µM |  |  |  |  |  |  |  |  |  | 
5 | O=C(COc1ccccc1)NS(=O)(=O)c1ccccc1 | > 100 µM | > 100 µM | > 100 µM | > 100 µM | > 100 | > 100 µM | > 100 µM | > 100 µM | > 100 µM | > 100 µM |  |  |  |  |  |  |  |  |  | 
6 | NC1=N/C(=C2/CCNC(=O)c3[nH]c(Br)cc32)C(=O)N1 | > 100 µM | > 100 µM | > 100 µM | > 100 µM | > 100 | 32.5 µM and 17.4 µM | > 100 µM | > 100 µM | > 100 µM | > 100 µM | 27.2 µM and 67.7 µM | > 100 | 7.44 µM and 2.54 µM |  |  |  |  |  |  | 
7 | O=C1CCC2(CC1)SCCCS2 |  | > 100 µM | > 100 µM | > 100 µM | > 100 | > 100 µM | > 100 µM | > 100 µM | > 100 µM | > 100 µM |  |  |  |  |  |  |  |  |  | 
8 | Cc1cc(Cl)cc2c1NC(=O)C2(O)C(C)C(=O)c1ccc(Cl)cc1 (stereo not given) | > 100 µM | > 100 µM | > 100 µM | > 100 µM | > 100 | > 100 µM | 89.8 µM | > 100 µM | > 100 µM | > 100 µM |  |  |  |  |  |  |  |  |  | 
9 | CC12CCC[C@@](C)(C(=O)OC3OC(CO)C(O)C(O)C3O)[C@H]1CCC13CC4CC(OC4(CO)[C@H]1O)[C@@H]23 (stereo not given in full) | > 100 µM | > 100 µM | > 100 µM | > 100 µM | > 100 | > 100 µM | > 100 µM | > 100 µM | > 100 µM | > 100 µM |  |  |  |  |  |  |  |  |  | 
10 | N.N.NCCCCN.O=C([O-])C1(C(=O)[O-])CCC1.O=C([O-])C1(C(=O)[O-])CCC1.[Pt+4].[Pt+4] | > 100 µM | > 100 µM | > 100 µM | > 100 µM | > 100 | > 100 µM | > 100 µM | > 100 µM | > 100 µM | 65.6 µM | > 100 µM | > 100 | > 100 µM | > 100 µM | > 100 µM | > 100 | > 100 µM | > 100 | 63.8 | 25.9
11 | CC(C)(C)C(=O)C1CC(=O)c2ccccc2C1=O (stereo not given) | 46.2 µM | 62.9 µM |  | > 100 µM | > 100 | 65.8 µM | 80.6 µM | 72.8 µM | > 100 µM | > 100 µM |  |  |  |  |  |  |  |  |  | 
12 | O=C1OC(O)C(Oc2ccc(Cl)cc2)=C1Cl (stereo not given) | > 100 µM | > 100 µM | > 100 µM | > 100 µM | > 100 | > 100 µM | > 100 µM | > 100 µM | > 100 µM | > 100 µM |  |  |  |  |  |  |  |  |  | 
13 | CS(=O)(=O)Nc1ccc(Nc2c3ccccc3nc3ccccc23)cc1 | 15 µM | 13 µM | 20.5 µM | 24.7 µM | 18.8 | 13.7 µM | 23.3 µM | 20.7 µM | 17.1 µM | 20.3 µM |  |  |  |  |  |  |  |  |  | 
14 | O=C(Nc1nc2ncn(CC(COc3ccccc3)OC(=O)c3ccccc3)c2c(=O)[nH]1)c1ccccc1 (stereo not given) | > 100 µM | > 100 µM | > 100 µM | > 100 µM | > 100 | > 100 µM | > 100 µM | > 100 µM | > 100 µM | > 100 µM |  |  |  |  |  |  |  |  |  | 
15 | CCOC(=O)c1cn(Cc2ccccc2)c(=O)n1Cc1ccccc1 | > 100 µM | > 100 µM | > 100 µM | > 100 µM | > 100 | > 100 µM | > 100 µM | > 100 µM | > 100 µM | > 100 µM |  |  |  |  |  |  |  |  |  | 
16 | COc1ccc2c(c1)OC[C@@H]1c3cc4c(cc3O[C@H]21)OCO4 | > 100 µM | > 100 µM | > 100 µM | > 100 µM | > 100 | > 100 µM | > 100 µM | > 100 µM |  | > 100 µM |  |  |  |  |  |  |  |  |  | 
17 | O=c1c2ccccc2c2nc3ccccc3nc2n1C1CCCCC1 | > 100 µM |  | > 100 µM | > 100 µM | > 100 | > 100 µM | > 100 µM | > 100 µM | > 100 µM | > 100 µM |  |  |  |  |  |  |  |  |  | 
18 | CO[C@@H]1[C@H](OC(=O)NC(=O)CCl)CC[C@]2(CO2)[C@H]1[C@@]1(C)O[C@@H]1CC=C(C)C | 28.7 µM and 40.9 µM | 41.1 µM and 44.9 µM | 27.5 µM and 88.9 µM | 27.2 µM and 28.6 µM | 41.5 | 3.99 µM and 16.8 µM and 33.8 µM | 27.9 µM and 131 µM | 32.8 µM and 47.9 µM | 31.3 µM and 25.7 µM | 45.4 µM and 69.1 µM | 8.62 µM and 20.5 µM | 3.36 | 1.23 µM and 7.41 µM | 2.77 µM and 11.2 µM and 2.96 µM | 9.11 µM and 0.958 µM |  | 4.08 µM and 23.7 µM | 18.9 | 3.27 | 6.01
19 | COc1ccc2nc3ccccc3c(NCCCCCCN(C)CCCl)c2c1 | 1.22 µM | 3.03 µM | 2.38 µM | 1.44 µM | 2.54 | 1.58 µM | 1.23 µM | 2.26 µM | 1.75 µM | 2.77 µM |  |  |  |  |  |  |  |  |  | 
20 | CCN(CC)C(=O)COc1ccc(Br)cc1Br | > 100 µM | > 100 µM | > 100 µM | > 100 µM | > 100 | > 100 µM | > 100 µM | > 100 µM | > 100 µM | > 100 µM |  |  |  |  |  |  |  |  |  | 
